Test [1] concerns A549 cells. Put plainly: MTT cytotoxicity assay, parental A549 cells. It is filed as cell-based, Human. The following applies: 96 hours exposure, mean of at least three experiments. The protocol: (§1) Tissue culture: Human non-small cell lung cancer A549 cells and T-cell leukemia CCRF-CEM cells were grown under monolayer conditions or up to a maximal density of 10^6 cells/ml (for CCRF-CEM cells) in RPMI-1640 medium (GIBCO) supplemented with 10% fetal calf serum, 2 mM glutamine, 100 μg/ml penicillin and 100 μg/ml streptomycin (Biological Industries, Beth-Haemek, Israel) in a humid atmosphere of 5% CO2. Drug resistant A549/K1.5 cells with ABCG2 overexpression were maintained under a continuous drug selection with 1.5 μM C-1305. Bram, E. E., et al., (2007) Biochem Pharmacol 74(1), 41-53.
(§2) Cytotoxicity and growth inhibition assays: The cytotoxic activity of the various IA antitumor agents was determined using the MTT assay. Poindessous, V., et al., (2003) Clin Cancer Res 9(7), 2817-2825.
(§3) Exponentially growing cells were seeded at 5×10^3 cells/well in 24-well plates (2 ml medium/well). Following an overnight incubation, cells were exposed to different drug concentrations for 96 hours. Cellular viability was determined by adding the tetrazolium salt MTT for 4 h at 37° C., followed by solubilization of the intracellular precipitated formazan in 1 ml DMSO and absorbance was determined by a microplate reader (ASYS Hitech GmbH, Austria). Drug concentrations required to inhibit cell growth by 50% (IC50) compared with untreated controls were determined from the curves of survival versus drug concentrations using the SlideWrite software (Advanced Graphics Software, Inc., Encinitas, Calif.). Resistance folds (RF) were calculated by dividing the IC50 value of the resistant cells by that of the parental cell line. Values presented are means of at least three independent experiments, each performed in duplicates.
Background: Tetrazolium dyes change colour on reduction, which living cells bring about.

Test [2] concerns A549/K1.5 cells. Put plainly: MTT cytotoxicity assay, ABCG2-overexpressing A549/K1.5 cells. The following applies: for resistance of A549/K1.5 cells (in words): versus parental A549 cells. It is filed as cell-based, Human. The protocol:
as §1, §2, §3
Quantitative evaluation of ABCG2 interaction with various IA derivatives: The extent of ABCG2-mediated resistance was expressed using the Resistance Fold (RF) parameter representing the ratio between the IC50 values of the resistant cells and parental cells. Likewise, ABCG2-dependent differential accumulation of IAs in ABCG2-overexpressing A549/K1.5 cells was compared using the ratio of IA accumulation in the presence or absence of the potent ABCG2 inhibitor FTC. This was termed the FTC-dependent Accumulation Fold (AF) and was determined for each IA at a constant IA concentration of 10 μM.

Test [3] concerns the target T1, FLT3 receptor tyrosine kinase (Homo sapiens, UniProt P36888).
T1 sequence (P36888 27-993): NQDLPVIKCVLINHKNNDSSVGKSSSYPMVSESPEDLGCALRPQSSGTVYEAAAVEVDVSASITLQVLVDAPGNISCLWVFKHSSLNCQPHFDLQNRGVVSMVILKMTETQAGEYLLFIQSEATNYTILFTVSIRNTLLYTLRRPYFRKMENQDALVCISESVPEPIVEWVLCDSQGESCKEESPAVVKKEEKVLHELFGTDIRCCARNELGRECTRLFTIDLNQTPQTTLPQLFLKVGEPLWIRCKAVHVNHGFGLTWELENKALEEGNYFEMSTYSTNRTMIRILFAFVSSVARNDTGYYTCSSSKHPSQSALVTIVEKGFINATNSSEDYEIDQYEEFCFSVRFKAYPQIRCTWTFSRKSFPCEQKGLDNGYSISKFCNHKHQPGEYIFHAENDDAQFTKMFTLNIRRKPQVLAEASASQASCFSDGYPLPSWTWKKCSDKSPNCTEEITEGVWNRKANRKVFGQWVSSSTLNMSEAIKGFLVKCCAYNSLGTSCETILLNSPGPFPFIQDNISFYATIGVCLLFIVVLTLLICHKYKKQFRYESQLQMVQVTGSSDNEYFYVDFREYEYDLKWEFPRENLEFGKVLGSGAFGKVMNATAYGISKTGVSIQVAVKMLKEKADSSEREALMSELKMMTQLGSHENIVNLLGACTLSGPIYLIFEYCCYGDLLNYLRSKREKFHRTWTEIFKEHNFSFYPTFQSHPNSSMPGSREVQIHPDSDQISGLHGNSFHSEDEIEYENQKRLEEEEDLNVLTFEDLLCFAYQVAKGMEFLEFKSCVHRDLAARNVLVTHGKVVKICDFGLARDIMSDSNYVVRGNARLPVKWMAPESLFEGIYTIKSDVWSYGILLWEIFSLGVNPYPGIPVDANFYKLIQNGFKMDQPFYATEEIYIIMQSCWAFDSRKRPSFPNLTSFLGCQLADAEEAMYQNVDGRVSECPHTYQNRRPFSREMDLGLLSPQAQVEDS
The note with it: preclinical, from cited literature; cited from earlier work.

As a reminder, the IC50 is the concentration that gives 50% inhibition.

Molecules are shown by their SMILES.

As for `CCN(CC)CCNc1ccc2ncn3c4ccc(O)cc4c(=O)c1c23` [C-1311], the 50% inhibitory concentration (IC50) in test [1] was 0.27 ± 0.012 µM; in test [2] (ABCG2-overexpressing A549/K1.5 cells, 96 hours exposure, MTT) it was 2.34 ± 0.05 µM. Further, the “RF (resistance fold)” value in test [2] (IC50 of A549/K1.5 cells divided by IC50 of parental A549 cells) came out at 8.70. Moreover, the “resistance of A549/K1.5 cells (in words)” value in test [2] was “prominent resistance”; in test [2] (listed as Symadex), “marked drug resistance”. The “FLT3 receptor tyrosine kinase inhibition (in words)” value in test [3] is “potent and selective FLT3 receptor tyrosine kinase inhibitor”.
